# Test system: rabbit sclera
# Test: Biomechanical testing of rabbit sclera treated ex vivo, NIR illumination through the anterior eye segment
# Details: 20 min incubation
# Method: The corneal and scleral strips were clamped horizontally, at a distance of 6 mm, between the jaws of a microcomputer-controlled biomaterial tester (Minimat, Germany) with a 200 Newton force cell (FIG. 1). Controlled tightening of screws was performed with a calibrated screwdriver at a preset torque of 9 cN.m (Torqueleader, England). The strain was increased linearly at a rate of 1.0 mm/min and was measured up to tissue rupture. Young's modulus was calculated by the testing machine. Ultimate stress and Young's modulus were expressed in Mega Pascal (MPa) units.
# Six eyes of three rabbits were enucleated. The posterior eye area up to the equatorial line was incubated using an eye cap with 2.5 mg/ml solution of WST11 in saline pH 7.3 for 20 minutes and then illuminated by NIR illumination through the anterior cornea using a diode laser (755 nm, 0.5 W) and three mirror fundus lens (FIGS. 18A-18C) for 30 minutes. Strips of sclera were cut and tested as described in Materials and Methods.
structure (smiles),measurement,setting,value
"CCC1C2=Cc3c(C)c(C(=O)NCCS(=O)(=O)[O-])c4[n]3[Pd][n]3c(c(C)c(C(C)=O)c3=CC(=N2)C1C)=CC1=NC(=C4CC(=O)OC)C(CCC(=O)[O-])C1C.[K+].[K+] (stereo not shown) [WST11, Palladium 3^1-oxo-15-methoxycarbonylmethyl-rhodobacteriochlorin 13^1-(2-sulfoethyl)amide dipotassium salt]",increase in Young's modulus,NIR through anterior cornea,54%
same,increase in maximal stress,NIR through anterior cornea,42%
same,mean maximal stress,"NIR through anterior cornea 30 min, control 4.65±1.15",6.59±1.32 MPa
same,mean Young's modulus,"NIR through anterior cornea 30 min, control 25.25±5.30",38.83±6.89 MPa
